Data set [1] has as its target T1, AhR (Homo sapiens, UniProt P35869).
T1 sequence (P35869 11-848): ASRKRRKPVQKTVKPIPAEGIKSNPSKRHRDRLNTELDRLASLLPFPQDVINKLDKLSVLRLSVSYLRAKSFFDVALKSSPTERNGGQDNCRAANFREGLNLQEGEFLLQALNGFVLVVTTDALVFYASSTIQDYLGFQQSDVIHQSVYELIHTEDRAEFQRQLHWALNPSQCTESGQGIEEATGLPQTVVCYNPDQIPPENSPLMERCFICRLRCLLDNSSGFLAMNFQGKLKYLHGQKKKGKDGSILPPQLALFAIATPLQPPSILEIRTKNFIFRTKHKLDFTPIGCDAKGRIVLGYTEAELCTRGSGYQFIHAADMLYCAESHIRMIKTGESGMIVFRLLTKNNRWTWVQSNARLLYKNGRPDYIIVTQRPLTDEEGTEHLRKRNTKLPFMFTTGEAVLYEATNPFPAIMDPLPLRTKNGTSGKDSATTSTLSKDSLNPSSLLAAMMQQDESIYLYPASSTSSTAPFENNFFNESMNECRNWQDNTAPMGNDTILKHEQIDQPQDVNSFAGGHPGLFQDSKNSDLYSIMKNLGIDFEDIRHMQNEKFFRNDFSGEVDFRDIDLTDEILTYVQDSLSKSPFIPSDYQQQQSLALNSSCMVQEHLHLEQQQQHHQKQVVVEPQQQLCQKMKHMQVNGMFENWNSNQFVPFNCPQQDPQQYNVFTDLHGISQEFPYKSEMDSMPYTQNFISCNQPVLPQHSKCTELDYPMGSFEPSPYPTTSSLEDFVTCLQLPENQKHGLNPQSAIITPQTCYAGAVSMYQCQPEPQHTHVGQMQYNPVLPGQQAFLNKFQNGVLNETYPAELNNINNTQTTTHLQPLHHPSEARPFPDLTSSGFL
Kind of data set: In Vitro Assay 1: XRE-luciferase reporter assay, antagonism in human cell line (HepG2). In general terms: Reporter assays use an easily measured gene product as a stand-in for the process of interest.

In data set [2] the target is T2, AhR (Mus musculus, UniProt P30561).
T2 sequence (P30561 1-848): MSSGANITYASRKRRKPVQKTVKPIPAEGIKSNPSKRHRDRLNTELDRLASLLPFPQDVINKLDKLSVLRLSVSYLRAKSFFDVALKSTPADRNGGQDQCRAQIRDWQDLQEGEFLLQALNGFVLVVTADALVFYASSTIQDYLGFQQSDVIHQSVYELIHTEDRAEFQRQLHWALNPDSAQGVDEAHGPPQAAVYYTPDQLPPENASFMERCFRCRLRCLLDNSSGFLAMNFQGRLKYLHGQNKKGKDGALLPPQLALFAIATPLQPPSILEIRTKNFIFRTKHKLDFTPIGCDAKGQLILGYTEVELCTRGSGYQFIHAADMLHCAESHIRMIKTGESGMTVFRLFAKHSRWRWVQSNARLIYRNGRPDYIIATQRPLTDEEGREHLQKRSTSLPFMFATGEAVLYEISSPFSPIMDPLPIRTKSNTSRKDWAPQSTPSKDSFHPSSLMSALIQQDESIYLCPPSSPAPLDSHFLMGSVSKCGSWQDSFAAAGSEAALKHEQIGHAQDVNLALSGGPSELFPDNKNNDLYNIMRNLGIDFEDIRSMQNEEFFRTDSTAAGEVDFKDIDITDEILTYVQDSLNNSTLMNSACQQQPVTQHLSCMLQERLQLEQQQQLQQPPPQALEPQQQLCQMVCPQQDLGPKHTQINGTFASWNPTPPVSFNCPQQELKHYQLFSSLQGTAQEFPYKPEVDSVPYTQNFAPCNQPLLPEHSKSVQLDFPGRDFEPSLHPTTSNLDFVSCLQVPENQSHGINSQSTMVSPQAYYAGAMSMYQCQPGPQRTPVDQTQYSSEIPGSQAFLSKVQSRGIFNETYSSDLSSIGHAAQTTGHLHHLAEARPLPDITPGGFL
Kind of data set: In Vitro Assay 2: XRE-luciferase reporter assay, antagonism in mouse cell line (Hepa1c1c7). The class given is cell-based. The note with it: 6 hours, read-out: Assay 2: AhR-Luc Mouse Antagonism (IC50). Here is the method: In Vitro Assay 2: Antagonism in Mouse Cell Line
Hepa1c1c7 (murine liver cancer cell line) cells co-transfected with XRE-Luc and Nano-Luc plasmids were plated in complete medium and incubated overnight at 37° C. in a CO2 incubator. Following incubation, cells were treated with AhR activating ligands such as kynurenic acid, kynurenine (#) with or without test compounds for 6 hours.

Data set [3] addresses T1, AhR. Kind of data set: In Vitro Assay 3: XRE-luciferase reporter assay, agonism in human cell line (HepG2). Particulars: HepG2, tryptophan free medium, 6 hours, no agonist, read-out: Assay 3: AhR-Luc Human Agonism (EC50). Details: endogenous in cells; host or cells: HepG2. The class given is cell-based. Here is the method:
In Vitro Assay 3: Agonism in Human Cell Line
HepG2 (human hepatoma cell line) cells co-transfected with XRE-Luc and Nano-Luc plasmids were plated in tryptophan free medium containing 1% of dialyzed fetal bovine serum and incubated overnight at 37° C. in a CO2 incubator. After 24 hours, cells were treated for 6 hours with test compounds or not. […] As a positive control, cells were incubated with TCDD.

Data set [4] has as its target T1, AhR. Description: In Vitro Assay 4: endogenous AhR activity assay (CYP1A1 and CYP1B1 mRNA, qRT-PCR, HepG2 cells). (Quantitative PCR measures a nucleic acid by following its amplification.)
Description: In Vitro Assay 4: Endogenous AhR Activity Assay
HepG2 cells were seeded in 12-well plate (3×10^5 cells/well). A day after seeding, the cells were treated with TCDD (10 nM) alone or with compounds (123 nM) for 4 hours. Total RNA was extracted using Trizol (Thermo Fisher Scientific). cDNA synthesis and quantitative RT-PCR (qRT-PCR) assays were performed using PrimeScript™ RT Master Mix (TAKARA) and TB Green™ Premix Ex Taq™ II (TAKARA) in accordance with manufacturer's instruction. For the measurement of endogenous AhR activity, relative mRNA levels of CYP1A1 and CYP1B1 were quantitated relative to β-actin mRNA by the comparative Ct (ΔΔCt) method. The percent inhibitions were calculated according to:
Setting [5] is: Assay 1: AhR-Luc Human Antagonism (IC50, nM), values marked *: kynurenine 50 μM, 6 hours.
[6] abbreviates: values marked #: AhR activating ligand kynurenine.
Where [7] appears, read: HepG2, read-out: CYP1A1 (% Inhibition).
Where [8] appears, read: HepG2, read-out: CYP1B1 (% Inhibition).
Setting [9] is: Assay 1: AhR-Luc Human Antagonism (IC50, nM), unmarked values: kynurenine 200 μM, 6 hours.
[10] abbreviates: unmarked values: AhR activating ligand kynurenic acid.

Read-outs that look alike come from different tables or passages of the source.

Turning to `CC[C@H](CO)Nc1cc(-c2ccc(Cl)cc2)nc(-c2cccnc2)n1` [Example 1, (R)-2-((6-(4-chlorophenyl)-2-(pyridin-3-yl)pyrimidin-4-yl)amino)butan-1-ol], the IC50 against AhR [1] (setting [5]) fell in the range of 10 to 100 nM; at AhR [2] (setting [6]), 100 to 1000 nM. At AhR [3] (number of the cell), the EC50 was found to be 12.6 nM. Besides, the inhibition at 0.123 µM on AhR [4] (setting [7]) came out at 60%; at AhR [4] (setting [8]), 92%.

With `CN1CCN(C2CCN(c3cc(-c4ccc(Cl)cc4)nc(-c4cccnc4)n3)CC2)CC1` [Example 92, 4-(4-chlorophenyl)-6-(4-(4-methylpiperazin-1-yl)piperidin-1-yl)-2-(pyridin-3-yl)pyrimidine], the figures for the IC50 against AhR [1] (setting [5]) and on AhR [2] (setting [6]) were 10 to 100 nM and 100 to 1000 nM, respectively. The values for the EC50 on AhR [3] (class in brackets of the cell) and at AhR [3] (number of the cell) were more than 10000 nM and more than 30000 nM, respectively.

Regarding `CS(=O)(=O)N1CCN(c2cc(-c3ccc(Cl)cc3)nc(-c3cccnc3)n2)CC1` [Example 107, 4-(4-chlorophenyl)-6-(4-(methylsulfonyl)piperazin-1-yl)-2-(pyridin-3-yl)pyrimidine], the IC50 is less than 10 nM against AhR [1] (setting [9]) and 10 to 100 nM at AhR [2] (setting [6]). Also, the EC50 on AhR [3] (class in brackets of the cell) was more than 10000 nM; on AhR [3] (number of the cell), more than 30000 nM.

Consider `CC(=O)NC1CCN(c2cc(-c3ccc(Cl)cc3)nc(-c3cccnc3)n2)C1` (stereo not shown) [Example 143, N-(1-(6-(4-chlorophenyl)-2-(pyridin-3-yl)pyrimidin-4-yl)pyrrolidin-3-yl)acetamide], for which the results for the IC50 against AhR [1] (setting [5]) and on AhR [2] (setting [6]) were less than 10 nM and 100 to 1000 nM, respectively. Besides, the EC50 is more than 10000 nM at AhR [3] (class in brackets of the cell) and more than 30000 nM at AhR [3] (number of the cell).

As to `CC(=O)N1CCC(CNc2cc(-c3ccc(Cl)cc3)nc(-c3cccnc3)n2)CC1` [Example 154, 1-(4-(((6-(4-chlorophenyl)-2-(pyridin-3-yl)pyrimidin-4-yl)amino)methyl)piperidin-1-yl)ethan-1-one], the values for the IC50 against AhR [1] (setting [5]) and at AhR [2] (setting [6]) were less than 10 nM and 10 to 100 nM, respectively. In addition, the figures for the EC50 on AhR [3] (class in brackets of the cell) and on AhR [3] (number of the cell) were more than 10000 nM and more than 30000 nM, respectively.

Consider `O[C@H]1CC[C@@H](Nc2cc(-c3ccc(Cl)cc3)nc(-c3cccnc3)n2)C1` [Example 162, (1S,3R)-3-((6-(4-chlorophenyl)-2-(pyridin-3-yl)pyrimidin-4-yl)amino)cyclopentan-1-ol], for which the figures for the IC50 against AhR [1] (setting [5]) and on AhR [2] (setting [6]) were less than 10 nM and 100 to 1000 nM, respectively. Besides, the results for the EC50 on AhR [3] (class in brackets of the cell) and at AhR [3] (number of the cell) were more than 10000 nM and more than 30000 nM, respectively.

Consider `CC(=O)N1CCCN(c2cc(-c3ccc(Cl)cc3)nc(-c3cccnc3)n2)C1` [Example 232, 1-(3-(6-(4-chlorophenyl)-2-(pyridin-3-yl)pyrimidin-4-yl)tetrahydropyrimidin-1 (2H)-yl)ethan-1-one], for which the IC50 is less than 10 nM on AhR [1] (setting [5]) and more than 1000 nM on AhR [2] (setting [6]). Also, the results for the inhibition at 0.123 µM on AhR [4] (setting [7]) and at AhR [4] (setting [8]) were 100% and 99.8%, respectively.

With `OCC1CN(c2cc(-c3ccc(Cl)cc3)nc(-c3cccnc3)n2)CC1O` (stereo not shown) [Example 236, 1-(6-(4-chlorophenyl)-2-(pyridin-3-yl)pyrimidin-4-yl)-4-(hydroxymethyl)pyrrolidin-3-ol], the concentration for half-maximal inhibition (IC50) against AhR [1] (setting [5]) was less than 10 nM; at AhR [2] (setting [6]), 100 to 1000 nM. For the same compound, the EC50 on AhR [3] (number of the cell) amounted to 40.1 nM.

For `CC(=O)N[C@@H]1CN(c2cc(-c3ccc(Cl)cc3)nc(-c3cccnc3)n2)C[C@@H]1O` [Example 243, N-((3R,4S)-1-(6-(4-chlorophenyl)-2-(pyridin-3-yl)pyrimidin-4-yl)-4-hydroxypyrrolidin-3-yl)acetamide], the half-maximal inhibitory concentration (IC50) on AhR [1] (setting [9]) was less than 10 nM; on AhR [2] (setting [6]) it was 10 to 100 nM. Besides, the inhibition at 0.123 µM on AhR [4] (setting [7]) came to 89.7%.

As for `OC[C@H]1CN(c2cc(-c3ccc(C(F)(F)F)cc3)nc(-c3cccnc3)n2)C[C@@H]1O` [Example 258, (3R,4R)-4-(hydroxymethyl)-1-(2-(pyridin-3-yl)-6-(4-(trifluoromethyl)phenyl)pyrimidin-4-yl)pyrrolidin-3-ol], the 50% inhibitory concentration (IC50) against AhR [1] (setting [9]) and at AhR [2] (setting [10]) was less than 10 nM in each case. Besides, on AhR [4] (setting [7]), the inhibition at 0.123 µM was determined as 101%.

Take `OC[C@H]1CN(c2cc(-c3ccc(C(F)(F)F)cc3)nc(-c3cccnc3)n2)CCO1` [Example 280, (R)-(4-(2-(pyridin-3-yl)-6-(4-(trifluoromethyl)phenyl)pyrimidin-4-yl)morpholin-2-yl)methanol]: the IC50 is less than 10 nM on AhR [1] (setting [9]) and 10 to 100 nM on AhR [2] (setting [10]).

Regarding `OC[C@@H]1CCN(c2cc(-c3ccc(Cl)cc3)nc(-c3cccnc3)n2)C[C@H]1F` [Example 282, ((3S,4S)-1-(6-(4-chlorophenyl)-2-(pyridin-3-yl)pyrimidin-4-yl)-3-fluoropiperidin-4-yl)methanol], the IC50 was less than 10 nM at AhR [1] (setting [9]) and 100 to 1000 nM on AhR [2] (setting [10]). Moreover, the values for the EC50 on AhR [3] (class in brackets of the cell) and at AhR [3] (number of the cell) were more than 10000 nM and more than 30000 nM, respectively.

As to `O[C@H]1CN(c2cc(-c3ccc(C(F)(F)F)cc3)nc(-c3cccnc3)n2)C[C@@H]1O` [Example 283, (3S,4S)-1-(2-(pyridin-3-yl)-6-(4-(trifluoromethyl)phenyl)pyrimidin-4-yl)pyrrolidine-3,4-diol], the IC50 at AhR [1] (setting [9]) was less than 10 nM; at AhR [2] (setting [10]), 10 to 100 nM. The figures for the EC50 on AhR [3] (class in brackets of the cell) and on AhR [3] (number of the cell) were more than 10000 nM and more than 30000 nM, respectively.

In the case of `Cn1cc(-c2nc(-c3ccc(C(F)(F)F)cc3)cc(N3CC[C@@H](C(=O)O)C3)n2)cn1` [Example 312, (R)-1-(2-(1-methyl-1H-pyrazol-4-yl)-6-(4-(trifluoromethyl)phenyl)pyrimidin-4-yl)pyrrolidine-3-carboxylic acid], the IC50 at AhR [2] (setting [10]) is more than 1000 nM.

For the compound “(3R,4R)-1-(6-(4-chlorophenyl)-2-(pyridin-3-yl)pyrimidin-4-yl)pyrrolidine-3,4-diol [Example 230]”, the 50% inhibitory concentration (IC50) on AhR [1] (read-out: Assay 1: AhR-Luc Human Antagonism (IC50), values marked *: kynurenine 50 μM, 6 hours) lay in the range of 10 to 100 nM; at AhR [2] (setting [6]), 10 to 100 nM.

For the compound “(3R,4S)-1-(6-(4-chlorophenyl)-2-(pyridin-3-yl)pyrimidin-4-yl)pyrrolidine-3,4-diol [Example 231]”, the IC50 at AhR [1] (read-out: Assay 1: AhR-Luc Human Antagonism (IC50), unmarked values: kynurenine 200 μM, 6 hours) is less than 10 nM; at AhR [2] (setting [6]) it was 10 to 100 nM. In addition, the values for the EC50 on AhR [3] (class in brackets of the cell) and at AhR [3] (number of the cell) were more than 10000 nM and more than 30000 nM, respectively.

The IC50 is the midpoint of a concentration-inhibition curve. The EC50 is the concentration that produces a half-maximal response. Broadly, the inhibition is the change of the read-out against control, counted positive when it falls.

(Values after patent publication US20230150970A1, “AMINOPYRIMIDINE DERIVATIVES AND THEIR USE AS ARYL HYDROCARBON RECEPTOR MODULATORS” (DONG-A ST CO., LTD., priority 2020, published 2023).)
